Measured values taken from article PMC8397956 (Molecules, 2021).
Like-named read-outs stand apart in the source and are kept apart here. Marks after values point to notes of the source that are not given here.

What was measured:
[1] = tested on: E. coli XL1 Blue; experiment: Growth inhibition of E. coli XL1 Blue, paper disc diffusion on LB solid medium; format: cell-based, Escherichia coli; conditions: for Growth Inhibition Zone: 24 h at 37 °C; for colonies of tolerant bacteria in the inhibition zone / bacterial growth inhibition (in words): paper disc diffusion; for bacterial growth inhibition (in words): Figure 1A
Method: The antimicrobial activity of α,α-difluorophosphonate 9a and 10 was determined using the paper disc diffusion method and was compared with the antimicrobial activity of the non-fluorinated phosphonate and phosphate compounds 3, 4 et 6. The diameters of the inhibition zone are given with respect to the amount of inhibitor deposited on the disc (Table 2).
(§1) The antimicrobial activity of hydroxamic acids 9b, 10a and 10b against E. coli XL1 Blue and fosmidomycin-resistant strain E. coli FosR [7], was determined using the paper disc diffusion method. LB agar plates (9 cm diameter) were inoculated with a suspension of bacteria (200 μL, mid-exponential phase). […] Growth inhibition was examined after 24 h incubation at 37 °C.

[2] = molecular target: T1, E. coli H6-DXR (Escherichia coli, UniProt P45568); experiment: Inhibition of E. coli His-tagged DXR (photometric NADPH assay); format: biochemical
T1 construct: His6 (H6)
Method: The inhibition potency of α,α-difluorophosphonohydroxamic acid derivatives was characterized by their IC50 value that was determined as previously described. […] Residual activity was measured after initiating the enzymatic reaction by addition of DXP.
The assays were performed at 37 °C in a 50 mM Tris/HCl buffer pH 7.5 containing 3 mM MgCl2 and 2 mM DTT. The concentrations of DXP and NADPH were 480 µM and 160 µM respectively. The decrease of absorbance at 340 nm due to NADPH oxidation was monitored to determine the initial rates. The retained values were the average of at least two measurements. The relative average deviation must be lower than 4%.
Inhibitor concentrations in the stock solutions were verified by spectrophotometric phosphorus determination. The study compounds 9b and 10a, 10b were tested against E. coli DXR using a photometric assay that was described earlier. H-DXR was pre-incubated during 2 min in the presence of the inhibitors 9b, 10a and 10b at different concentrations and NADPH. DXP was then added to measure the residual activity. The inhibitory potential of the tested compounds was quantified by determining the IC50 values. They were obtained by plotting the percentage of residual activity versus the Log of inhibitor concentration.

[3] = tested on: E. coli XL1 Blue; conditions: cited from earlier work
[4] = molecular target: T1, E. coli H6-DXR; conditions: cited from earlier work
[5] = tested on: Plasmodium falciparum (K1 strain); set-up: method as in PMID 20568776; conditions: racemic mixtures, intraerythrocytic forms, ref [14]; cited from earlier work
[6] = tested on: fosmidomycin-resistant strain E. coli FosR; experiment: Growth inhibition of fosmidomycin-resistant E. coli FosR, paper disc diffusion; format: cell-based, Escherichia coli; conditions: GlpT/UhpT transporters inoperative, Figure 1B
Method: as §1

T1 sequence (P45568 whole entry): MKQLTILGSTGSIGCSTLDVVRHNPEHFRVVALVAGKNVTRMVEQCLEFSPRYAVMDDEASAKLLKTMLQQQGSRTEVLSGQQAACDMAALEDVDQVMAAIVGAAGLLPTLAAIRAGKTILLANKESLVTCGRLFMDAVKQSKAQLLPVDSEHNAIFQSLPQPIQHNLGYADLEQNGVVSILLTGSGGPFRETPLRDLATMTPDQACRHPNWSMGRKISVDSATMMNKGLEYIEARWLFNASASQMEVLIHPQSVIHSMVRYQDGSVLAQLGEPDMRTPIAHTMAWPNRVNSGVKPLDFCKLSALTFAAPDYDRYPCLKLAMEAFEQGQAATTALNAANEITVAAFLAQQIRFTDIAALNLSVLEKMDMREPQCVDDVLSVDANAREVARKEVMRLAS

## O=CN(O)CCCP(=O)(O)O [Compound 3a, fosmidomycin]
[1]; 2 nmoles/disc
  Growth Inhibition Zone: 35 mm
[1]
  colonies of tolerant bacteria in the inhibition zone: colonies of tolerant bacteria

## CC(=O)N(O)CCCP(=O)(O)O [Compound 3b, FR-900098]
[2]
  IC50: 4 nM
[3]; 2 nmoles/disc, ref [9]
  Growth Inhibition Zone: 32 * mm

## O=C(CCCP(=O)(O)O)NO [Compound 4a]
[4]; ref [8]
  IC50: 180 nM
[3]; 400 nmoles/disc, ref [8]
  Growth Inhibition Zone: 12 ** mm

## CN(O)C(=O)CCCP(=O)(O)O [Compound 4b]
[3]; 80 nmoles/disc, ref [8]
  Growth Inhibition Zone: 30 ** mm

## O=CN(O)CCOP(=O)(O)O [Compound 5a, fosfoxacin]
[4]; ref [9]
  IC50: 342 nM

## CC(=O)N(O)CCOP(=O)(O)O [Compound 5b]
[4]; ref [9]
  IC50: 77 nM

## O=C(CCOP(=O)(O)O)NO [Compound 6a]
[4]; ref [9]
  IC50: 2600 nM
[3]; 400 nmoles/disc, ref [9]
  Growth Inhibition Zone: <10 * mm

## CN(O)C(=O)CCOP(=O)(O)O [Compound 6b]
[4]; ref [9]
  IC50: 46 nM
[3]; 160 nmoles/disc, ref [9]
  Growth Inhibition Zone: 20 * mm

## CC(=O)N(O)CCC(F)P(=O)(O)O (stereo not drawn) [Compound 7]
[5]
  activity compared with parent compounds fosmidomycin and 4b: more active

## CN(O)C(=O)CCC(F)P(=O)(O)O (stereo not drawn) [Compound 8]
[5]
  activity compared with parent compounds fosmidomycin and 4b: more active

## CC(=O)N(O)CCC(F)(F)P(=O)(O)O [Compound 9b, (1,1-Difluoro-3-(N-hydroxyacetamido)propyl)phosphonic acid]
[2]
  IC50: 9 nM
[1]; 2 nmoles/disc
  Growth Inhibition Zone: 15 mm
[1]
  colonies of tolerant bacteria in the inhibition zone: did not appear
  bacterial growth inhibition (in words): quite effective to inhibit bacterial growth
[6]
  bacterial growth inhibition (in words): No growth inhibition

## O=C(CCC(F)(F)P(=O)(O)O)NO [Compound 10a, (1,1-Difluoro-4-(hydroxyamino)-4-oxobutyl)phosphonic acid]
[2]
  IC50: 4600 nM
[2]; ratio of IC50 values on E. coli DXR
  fold less efficient than N-methylated analogue 10b: 280
[1]
  bacterial growth inhibition (in words): no inhibition was observed

## CN(O)C(=O)CCC(F)(F)P(=O)(O)O [Compound 10b, (1,1-Difluoro-4-(hydroxy(methyl)amino)-4-oxobutyl)phosphonic acid]
[2]
  IC50: 17 nM
[1]; 1.5 nmoles/disc
  Growth Inhibition Zone: 20 mm
[1]
  colonies of tolerant bacteria in the inhibition zone: did not appear
  bacterial growth inhibition (in words): quite effective to inhibit bacterial growth
